# Experimental data taken from patent publication US20030180735A1, “Screening method” (priority 1999, published 2003).
# Test system: primary human neutrophils
# Assay: Neutrophil spontaneous apoptosis by cell shrinkage (forward scatter, flow cytometry)
# Assay type: cell-based
# Details: 6 hours of culture
# Experimental: FIG. 4: Inhibition of NADPH oxidase can decrease the number of cells undergoing apoptosis. Neutrophils are cultured @2×10^6/ml in a 24 well plate. Following 6 hours of culture, Forward Scatter (FSc) parameters are examined following acquisition by a FacScan. Cell shrinkage is determined by the percentage of cells with reduced FSc compared with cellular FSc parameters at t=0 h.
# Onset of apoptosis as determined by cell shrinkage was determined by flow cytometry. Isolated cells are set up in culture at a concentration of 2×10^6/ml. At the indicated time points a sample is removed and the forward and side scatter parameters of the cells are measured by flow cytometry using a Becton Dickenson FACScan equipped with CellQuest software. Cell shrinkage is detected by a reduction in forward scatter parameters. Determination of apoptosis inhibition was calculated by the percentage of cells with reduced forward scatter parameters, in untreated cultures, minus percentage of cells with reduced forward scatter parameters in treated cultures.
# Primary human neutrophils are isolated and puriied from the peripheral blood of normal healthy individuals. Upon culture for 6 hour in a serum-containing cell culture medium, these neutrophils undergo ‘spontaneous apoptosis’ (Haslett, Clinical Science 83, pp639-648, 1992). […]
smiles,measurement,value
c1ccc2c(c1)[I+]c1ccccc1-2 [DPI],"percentage of cells undergoing apoptosis (cell shrinkage, reduced FSc)",decrease the percentage of cells undergoing apoptosis
